Measurements: patent US10294202B2, “Pyrrolidinones as herbicides” (FMC Corporation, priority 2013, dated 2019)

What was measured:
[1] = tested on: ragweed; experiment: Test A pre-/postemergence herbicide test; format: in vivo, Ambrosia elatior
Procedure, shortened: (§1)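 Seeds in loam–sand blend received preemergence directed soil spray; separately, plants 2–10 cm at one- to two-leaf stage received postemergence spray, both with test chemicals in non-phytotoxic solvent with surfactant. After ~10 days in greenhouse, injury rated visually against untreated controls, 0 (no effect) to 100 (complete control).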

[2] = tested on: barnyardgrass; experiment: Test A pre-/postemergence herbicide test; format: in vivo, Echinochloa crus-galli
Procedure, shortened: as §1

[3] = tested on: ryegrass, Italian; experiment: Test A pre-/postemergence herbicide test; format: in vivo, Lolium multiflorum
Procedure, shortened: as §1

[4] = tested on: sedge, umbrella; experiment: Test B flooded paddy test; format: in vivo, Cyperus difformis; conditions: 500 g ai/ha, Flood; scale of 0 to 100 where 0 is no effect and 100 is complete control
Procedure, shortened: (§2)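 Plants grown to 2-leaf stage; pots flooded 3 cm above soil and compound applied directly into paddy water, depth held throughout. Visual rating against untreated controls after 13 to 15 days in greenhouse, 0 (no effect) to 100 (complete control).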

[5] = tested on: pigweed; experiment: Test A pre-/postemergence herbicide test; format: in vivo, Amaranthus retroflexus
Procedure, shortened: as §1

[6] = tested on: ducksalad; experiment: Test B flooded paddy test; format: in vivo, Heteranthera limosa; conditions: 500 g ai/ha, Flood; scale of 0 to 100 where 0 is no effect and 100 is complete control
Procedure, shortened: as §2

[7] = tested on: corn; experiment: Test A pre-/postemergence herbicide test; format: in vivo, Zea mays; conditions: Postemergence
Procedure, shortened: as §1

[8] = tested on: giant foxtail; experiment: Test A pre-/postemergence herbicide test; format: in vivo, Setaria faberii
Procedure, shortened: as §1

[9] = tested on: galium; experiment: Test A postemergence herbicide test; format: in vivo, Galium aparine
Procedure, shortened: (§3)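 Injury was rated visually about 10 days after treatment on a 0 (no effect) to 100 (complete control) scale, compared with untreated plants. Test chemicals were sprayed postemergence onto greenhouse plants 2–10 cm high at one to two leaves, grown in a loam–sand blend.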

[10] = tested on: kochia; experiment: Test A pre-/postemergence herbicide test; format: in vivo, Kochia scoparia
Procedure, shortened: as §1

[11] = tested on: barnyardgrass; experiment: Test B flooded paddy test; format: in vivo, Echinochloa crus-galli; conditions: 500 g ai/ha, Flood; scale of 0 to 100 where 0 is no effect and 100 is complete control
Procedure, shortened: as §2

[12] = tested on: blackgrass; experiment: Test A postemergence herbicide test; format: in vivo, Alopecurus myosuroides
Procedure, shortened: as §3

[13] = tested on: rice; experiment: Test B flooded paddy test; format: in vivo, Oryza sativa; conditions: 500 g ai/ha, Flood; scale of 0 to 100 where 0 is no effect and 100 is complete control
Procedure, shortened: as §2

[14] = tested on: wheat; experiment: Test A pre-/postemergence herbicide test; format: in vivo, Triticum aestivum; conditions: Postemergence
Procedure, shortened: as §1

[15] = Postemergence, 125 g ai/ha, visual rating on 0 to 100 scale (0 no effect, 100 complete control), approx. 10 days
[16] = Postemergence, 500 g ai/ha, 0 to 100 scale (0 no effect, 100 complete control)
[17] = Preemergence, 125 g ai/ha, 0 to 100 scale where 0 is no effect and 100 is complete control
[18] = preemergence, 500 g ai/ha, 0 to 100 scale, 0 is no effect and 100 is complete control
[19] = Postemergence, 125 g ai/ha, 0 to 100 scale, 0 is no effect, 100 is complete control
[20] = 125 g ai/ha, 0 to 100 scale, 0 is no effect, 100 is complete control
[21] = 500 g ai/ha, 0 to 100 scale (0 no effect, 100 complete control)
[22] = 125 g ai/ha, visual rating on 0 to 100 scale (0 no effect, 100 complete control), approx. 10 days
[23] = Preemergence, 500 g ai/ha, visual rating on 0 to 100 scale (0 no effect, 100 complete control)

SMILES	Plant response rating, Ragweed [1, 15]	Plant response rating, Ragweed [1, 16]	Plant response rating, Barnyardgrass [2, 16]	Plant response rating, Barnyardgrass [2, 17]	Plant response rating, Barnyardgrass [2, 18]	Plant response rating, Ryegrass, Italian [3, 15]	Plant response rating, Ryegrass, Italian [3, 16]	Plant response rating, Ryegrass, Italian [3, 17]	Plant response rating, Sedge, Umbrella [4]	Plant response rating, Pigweed [5, 15]	Plant response rating, Pigweed [5, 16]	Plant response rating, Pigweed [5, 17]	Plant response rating, Pigweed [5, 18]	Plant response rating, Ducksalad [6]	Plant response rating, Corn [7, 21]	Plant response rating, Foxtail, Giant [8, 16]	Plant response rating, Foxtail, Giant [8, 17]	Plant response rating, Foxtail, Giant [8, 18]	Plant response rating, Galium [9, 21]	Plant response rating, Kochia [10, 16]	further results
O=C1NCC(c2cc3ccccc3o2)C1C(=O)Nc1cccc(F)c1F (stereo not shown) [Compound 282]	0	0	90	60	90	0	0	0	30	0	0	0	0	95	0	30	20	70	40	0	Plant response rating, Ragweed [1, 17]: 0; Plant response rating, Ragweed [1, 18]: 0; Plant response rating, Barnyardgrass [2, 19]: 50; Plant response rating, Ryegrass, Italian [3, 18]: 0; Plant response rating, Corn [7, 20]: 0; Plant response rating, Foxtail, Giant [8, 19]: 0; Plant response rating, Galium [9, 20]: 0; Plant response rating, Kochia [10, 19]: 0; Plant response rating, Kochia [10, 17]: 0; Plant response rating, Kochia [10, 18]: 50; Plant response rating, Barnyardgrass [11]: 30; Plant response rating, Blackgrass [12, 20]: 0; Plant response rating, Blackgrass [12, 21]: 20; Plant response rating, Rice [13]: 0; Plant response rating, Wheat [14, 22]: 0; Plant response rating, Wheat [14, 21]: 0
O=C1NCC(c2cc3ccccc3o2)C1C(=O)Nc1ccccc1C(F)(F)F (stereo not shown) [Compound 283]	0	0	60	0	0	0	0	0	0	0	0	0	0	85	0	10	0	0	0	0	Plant response rating, Ragweed [1, 17]: 0; Plant response rating, Ragweed [1, 18]: 0; Plant response rating, Barnyardgrass [2, 19]: 0; Ryegrass, Italian plant response rating [3, 23]: 0; Plant response rating, Corn [7, 20]: 0; Plant response rating, Foxtail, Giant [8, 19]: 0; Plant response rating, Galium [9, 20]: 0; Plant response rating, Kochia [10, 19]: 0; Plant response rating, Kochia [10, 17]: 0; Plant response rating, Kochia [10, 18]: 0; Plant response rating, Barnyardgrass [11]: 20; Plant response rating, Blackgrass [12, 20]: 0; Plant response rating, Blackgrass [12, 21]: 0; Plant response rating, Rice [13]: 0; Plant response rating, Wheat [14, 22]: 0; Plant response rating, Wheat [14, 21]: 0
CSc1cccc(C2CNC(=O)C2C(=O)Nc2ccc(F)cc2F)c1 (stereo not shown) [Compound 288]	0	0	80	30	70	0	0	0	0	0	0	0	0	65	0	30	30	90	0	20	Plant response rating, Ragweed [1, 17]: 0; Plant response rating, Ragweed [1, 18]: 0; Plant response rating, Barnyardgrass [2, 15]: 20; Ryegrass, Italian plant response rating [3, 23]: 20; Plant response rating, Corn [7, 22]: 0; Plant response rating, Foxtail, Giant [8, 15]: 20; Plant response rating, Galium [9, 22]: 0; Plant response rating, Kochia [10, 15]: 0; Plant response rating, Kochia [10, 17]: 30; Plant response rating, Kochia [10, 18]: 50; Plant response rating, Barnyardgrass [11]: 20; Plant response rating, Blackgrass [12, 22]: 0; Plant response rating, Blackgrass [12, 21]: 0; Plant response rating, Rice [13]: 0; Plant response rating, Wheat [14, 22]: 0; Plant response rating, Wheat [14, 21]: 0
O=C1NCC(c2ccc(Cl)s2)C1C(=O)Nc1ccccc1C(F)(F)F (stereo not shown) [Compound 293]	0	0	70	20	70	0	0	0	0	0	0	0	0	95	0	70	80	90	60	0	Plant response rating, Barnyardgrass [2, 15]: 50; Ryegrass, Italian plant response rating [3, 23]: 0; Plant response rating, Corn [7, 22]: 0; Plant response rating, Foxtail, Giant [8, 15]: 50; Plant response rating, Galium [9, 22]: 20; Plant response rating, Kochia [10, 15]: 0; Plant response rating, Kochia [10, 17]: 0; Plant response rating, Kochia [10, 18]: 0; Plant response rating, Barnyardgrass [11]: 35; Plant response rating, Blackgrass [12, 22]: 0; Plant response rating, Blackgrass [12, 21]: 10; Plant response rating, Rice [13]: 0; Plant response rating, Wheat [14, 22]: 0; Plant response rating, Wheat [14, 21]: 0
O=C1NCC(c2ccc(Cl)s2)C1C(=O)Nc1cccc(F)c1F (stereo not shown) [Compound 294]	0	20	90	70	90	0	20	0	0	0	0	0	20	98	0	80	70	90	30	50	Plant response rating, Ragweed [1, 17]: 0; Plant response rating, Ragweed [1, 18]: 0; Plant response rating, Barnyardgrass [2, 15]: 60; Ryegrass, Italian plant response rating [3, 23]: 30; Plant response rating, Corn [7, 22]: 0; Plant response rating, Foxtail, Giant [8, 15]: 30; Plant response rating, Galium [9, 22]: 0; Plant response rating, Kochia [10, 15]: 30; Plant response rating, Kochia [10, 17]: 40; Plant response rating, Kochia [10, 18]: 90; Plant response rating, Barnyardgrass [11]: 20; Plant response rating, Blackgrass [12, 22]: 20; Plant response rating, Blackgrass [12, 21]: 30; Plant response rating, Rice [13]: 0; Plant response rating, Wheat [14, 22]: 20; Plant response rating, Wheat [14, 21]: 20
